Test results: patent US20210317099A1, “SAFER, POTENT, AND FAST ACTING ANTIMICROBIAL AGENTS” (Purdue Research Foundation, priority 2020, published 2021)
Converted amounts (≈) assume the structure as drawn. Read-outs that look alike come from different tables or passages of the source.

Tests used:
Format in all cases: cell-based
MRSA NRS 123 = assay: MIC, Gram-positive panel; conditions: Staphylococcus aureus; MRSA NRS 123; read-out: MIC
Method: (§1) Next, the spectrum of antibacterial activity of compounds 144, 148, 149, 151, 155, 158, and 187 was examined against a panel of clinically relevant Gram-positive bacterial pathogens including methicillin-resistant Staphylococcus aureus (MRSA), vancomycin-resistant Staphylococcus aureus (VRSA), vancomycin-resistant Enterococcus faecalis and Enterococcus faecium (VRE), and Streptococcus pneumoniae. Bacterial strains were grown aerobically overnight on tryptone soya agar plates at 37° C. Afterwards, a bacterial solution equivalent to 0.5 McFarland standard was prepared and diluted in cation-adjusted Mueller-Hinton broth (CAMHB) (for staphylococci). Enterococci and Streptococci were diluted in tryptone soya broth (TSB) to achieve a bacterial concentration of about 5×10^5 CFU/mL and seeded in 96-well plates. Compounds and control drugs were added in the first row of 96-well plates and serially diluted with media containing bacteria. Plates were then, incubated aerobically at 37° C. for 18-20 hours (except for S. pneumoniae, which was incubated at 37° C. in presence of 5% CO2 for 18-20 hours).

S. pneumoniae ATCC 51916 = assay: MIC, Gram-positive panel; conditions: Streptococcus pneumoniae, ATCC51916; S. pneumoniae ATCC 51916; read-out: MIC
Method: as §1

MRSA NRS 385 = assay: MIC, Gram-positive panel; conditions: Staphylococcus aureus; MRSA NRS 385; read-out: MIC
Method: as §1

[1] = test system: Enterococcus faecalis ATCC 51299 (VRE); assay: MIC, Gram-positive panel; conditions: Enterococcus faecalis ATCC 51299 (VRE); read-out: MIC
Method: as §1

MRSA NRS 119 = assay: MIC, Gram-positive panel; conditions: Staphylococcus aureus; MRSA NRS 119; read-out: MIC
Method: as §1

VRSA 10 = assay: MIC, Gram-positive panel; conditions: Staphylococcus aureus; VRSA 10; read-out: MIC
Method: as §1

MRSA NRS 386 = assay: MIC, Gram-positive panel; conditions: Staphylococcus aureus; MRSA NRS 386; read-out: MIC
Method: as §1

[2] = test system: Enterococcus faecium ATCC 700221 (VRE); assay: MIC, Gram-positive panel; conditions: Enterococcus faecium ATCC 700221 (VRE); read-out: MIC
Method: as §1

S. aureus ATCC 6538 = assay: MIC, Gram-positive panel; conditions: Staphylococcus aureus, ATCC6538; S. aureus ATCC 6538; read-out: MIC
Method: as §1

[3] = test system: Methicillin-resistant S. epidermidis NRS101; assay: MIC, Gram-positive panel; conditions: Staphylococcus epidermidis; Methicillin-resistant S. epidermidis NRS101; read-out: MIC
Method: as §1

S. aureus NRS 107 = assay: MIC, Gram-positive panel; conditions: Staphylococcus aureus, NRS107; S. aureus NRS 107; read-out: MIC
Method: as §1

[4] = test system: Methicillin-resistant S. pneumoniae ATCC 700677; assay: MIC, Gram-positive panel; conditions: Streptococcus pneumoniae, ATCC700677; Methicillin-resistant S. pneumoniae ATCC 700677; read-out: MIC
Method: as §1

VRSA 12 = assay: MIC, Gram-positive panel; conditions: Staphylococcus aureus; VRSA 12; read-out: MIC
Method: as §1

[5] = test system: human keratinocytes cell line (HaCaT cells); assay: In vitro cytotoxicity, MTS assay; conditions: 2 h
Method: Compounds 144, 148, 149, 151, 155, and 158 were assayed (at concentrations of 16, 32, and 64 μg/mL) against a human keratinocytes cell line (HaCaT cells) to determine their in vitro potential toxic effect. Briefly, cells were cultured in Dulbecco's Modified Eagle Medium (DMEM) supplemented with 10% fetal bovine serum (FBS) and penicillin-streptomycin at 37° C. in presence of 5% CO2. Compounds were added in the first row of the 96-well plate. Control cells received DMSO alone at a concentration equivalent to that in drug-treated wells. The cells were incubated with the compounds (in triplicate) in a 96-well plate at 37° C. in presence of 5% CO2 for two hours. The assay reagent MTS 3-(4,5-dimethylthiazol-2-yl)-5-(3-carboxymethoxyphenyl)-2-(4-sulfophenyl)-2H-tetrazolium) (Promega, Madison, Wis., USA) was subsequently added and the plate was incubated for three to four hours. Absorbance readings (at OD490) were recorded using a kinetic microplate reader (Molecular Devices, Sunnyvale, Calif., USA). The quantity of viable cells after treatment with each compound was expressed as a percentage of the viability to DMSO-treated control cells (average of triplicate wells±standard deviation).
FIG. 2. Analyzing the toxicity of compounds 144, 148, 149, 151, 155 and 158 (tested in triplicates at 16, 32 and 64 μg/mL) against human keratinocytes cells (HaCaT) using the MTS 3-(4,5-dimethylthiazol-2-yl)-5-(3-carboxymethoxyphenyl)-2-(4-sulfophenyl)-2H-tetrazolium) assay. Results are presented as percent viable cells relative to DMSO (negative control to determine a baseline measurement for the cytotoxic impact of each compound). The absorbance values represent an average of three samples analyzed for each compound. Error bars represent standard deviation values. The data were analyzed via a two-way ANOVA with post-hoc Dunnett's test for multiple comparisons. An asterisk (*) denotes statistical significance (P<0.05) between results for compounds and DMSO.

[6] = test system: Staphylococcus aureus NRS384 (MRSA USA300); assay: Initial MIC screening, broth microdilution (CLSI); conditions: Staphylococcus aureus NRS384 (MRSA USA300), broth microdilution, visual reading
Method: Method: The minimum inhibitory concentration (MIC) of the compounds 1-187, and control antibiotics (vancomycin, linezolid) was determined using the broth microdilution method against methicillin-resistant Staphylococcus aureus (MRSA) USA 300 using the broth microdilution method according to the guidelines outlined by the Clinical and Laboratory Standards Institute (CLSI). MRSA strain was cultivated on Tryptic soy agar plates and let grow for 24 hours at 37° C. under aerobic conditions. Bacterial suspension equivalent to 0.5 McFarland standard was prepared and diluted in cation-adjusted Mueller-Hinton broth (CAMHB) to attain a bacterial concentration of 5×10^5 CFU/ml and seeded in 96-well plates. The desired concentrations of each drug and compound were added in the first row of the 96-well plates and serially diluted to achieve a concentration gradient from 64 μg/ml to 0.5 μg/mL.

MIC (MRSA NRS 123): 2 µg/mL (≈ 6.61 µM)
MIC (S. pneumoniae ATCC 51916): 1 µg/mL (≈ 3.31 µM)
MIC (MRSA NRS 385): 1 µg/mL (≈ 3.31 µM)
MIC [1]: > 64 µg/mL
MIC (MRSA NRS 119): 2 µg/mL (≈ 6.61 µM)
MIC (VRSA 10): 1 µg/mL (≈ 3.31 µM)
MIC (MRSA NRS 386): 1 µg/mL (≈ 3.31 µM)
MIC [2]: > 64 µg/mL
MIC (S. aureus ATCC 6538): 1 µg/mL (≈ 3.31 µM)
MIC [3]: 0.5 µg/mL (≈ 1.65 µM)
MIC (S. aureus NRS 107): 1 µg/mL (≈ 3.31 µM)
MIC [4]: 1 µg/mL (≈ 3.31 µM)
MIC (VRSA 12): 2 µg/mL (≈ 6.61 µM)
MIC [6]: 1 µg/mL (≈ 3.31 µM)
MIC ([6]; Staphylococcus aureus, read-out: MIC): 1 to 2 µg/mL (≈ 3.31 to 6.61 µM)
SMILES: C=C1C(=O)O[C@H](C2=CC=CCC2)[C@H]1c1cccc2ccccc12 [Compound 187]
tolerable concentration as multiple of MIC against MRSA [5]: 16 to 32 times
